According to patent publication US20130236568A1, “PHOSPHAPLATINS HAVING ANTI-ANGIOGENIC, ANTI-METASTATIC, AND PRO-APOPTOTIC PROPERTIES AND USES THEREOF” (Ohio University, priority 2011, published 2013):

What was measured:
[1] = system: BAX; assay: Quantitative real-time PCR, Bax expression in HUVEC; assay type: cell-based, human; conditions: HUVEC treated with pyrodach-4
Procedure: (§1) Evaluations of selected gene expressions in Human Umbilical Vein Endothelial Cells (HUVEC) and Human Ovarian Cancer Cells by quantitative reverse transcriptase polymerase chain reaction (PCR)
Quantitative real-time PCR experiments were performed to estimate the expression of a selection of targeted genes. HUVEC cells (Lonza Walkersville, Frederick, Md.) were cultured on 0.1% gelatin-coated petri dishes by following standard protocols recommended by the vendor in a humidified incubator by maintaining 5% CO2 at 37° C. […]
Both treated and untreated cancer cells were maintained in RPMI 1640 medium with 10% fetal bovine serum, 2 μmol L-glutamine, 100 units/mL penicillin-streptomycin and 0.25 units/mL insulin solution, at 37° C. with 5% CO2. […] The quantity and purity of RNA were determined by UV spectroscopy (NanoDrop 2000 Thermo Scientific, Wilmington, Del.). A minimum absorbance ratio index (ratio of the absorbance measured at 260 nm over that at 280 nm) of 1.9 was used as an acceptable purity. […] The target gene was labeled with a blue dye (FAM, absorbance: 494 nm, emission: 518 nm) while the reference gene was tagged with a green dye (VIC, absorbance: 538 nm, emission: 554 nm). […]
(§2) The threshold cycle number (Ct), the point at which the fluorescence of the qPCR reaction just exceeds the threshold fluorescence of the detection system, was determined. […]

[2] = system: VEGFR2 gene; assay: Quantitative real-time PCR, VEGFR2 gene expression in A2780/C30 cells; assay type: cell-based, human
Procedure: as §1
Quantitative real-time PCR experiments were performed to estimate the expression of a selection of targeted genes. HUVEC cells (Lonza Walkersville, Frederick, Md.) were cultured on 0.1% gelatin-coated petri dishes by following standard protocols recommended by the vendor in a humidified incubator by maintaining 5% CO2 at 37° C. Human epithelial ovarian cancer cells (A2780) and cisplatin-resistant cells (A2780/C30) were cultured in RPMI 1640 with or without cisplatin (7 μM) and pyrodach-4 (180 μM) for 0, 3, 12 and 24 hours. […] HUVECs were treated with or without cisplatin (7 μM) or pyrodach-4 (90 or 180 μM) for various durations ranging from 1 hr. to 6 hrs.
Both treated and untreated cancer cells were maintained in RPMI 1640 medium with 10% fetal bovine serum, 2 μmol L-glutamine, 100 units/mL penicillin-streptomycin and 0.25 units/mL insulin solution, at 37° C. with 5% CO2. RNA was isolated from both the treated and untreated cells. […] The quantity and purity of RNA were determined by UV spectroscopy (NanoDrop 2000 Thermo Scientific, Wilmington, Del.). A minimum absorbance ratio index (ratio of the absorbance measured at 260 nm over that at 280 nm) of 1.9 was used as an acceptable purity. […] The target gene was labeled with a blue dye (FAM, absorbance: 494 nm, emission: 518 nm) while the reference gene was tagged with a green dye (VIC, absorbance: 538 nm, emission: 554 nm). The cDNA concentrations were selected such that the threshold cycle (Ct) values for the target genes were between 17 and 32, most sensitive for the fluorescence detection by ABI StepOnePlus™ instrument used for the measurements.
as §2

trans-(±)-1,2-cyclohexanediamine-trans-dihydroxo(pyrophosphato) platinum(IV) [Pyrodach-4]
Over-expression of Bax [1]: 2-3 fold
Normalized expression of VEGFR2 gene ([2]; A2780/C30 (cisplatin-resistant), positive = manifold increase, negative = relative decrease vs untreated cells, cisplatin 7 μM, pyrodach-4 180 μM): −2.0
Suppression of VEGFR-2 gene expression ([2]; cisplatin-resistant human ovarian cancer cells): ≤ 50%
